Laboratory results from patent publication US4231928A, “Antibacterial agents” (priority 1979, dated 1980).
Where two headings read alike, the source gives them in different places.

Assays:
[1] = system: P. morganii; assay: Serial twofold agar dilution (Mueller-Hinton agar), P. morganii; assay type: cell-based; conditions: Morganella morganii, P. morganii A9553, Table 8, read-out: MIC
Experimental: (§1) The Minimum Inhibitory Concentrations (MIC) for sodium 6-[D-(-)-α-phenyl-α-(7-hydroxy-4-oxo-4H-pyrimido[1,2-b]pyridazin-3-ylcarboxamido)acetamido]penicillanate (BB-P598) and sulbenicillin were determined by the serial twofold agar dilution method using Steers' apparatus on Mueller-Hinton agar plates against 31 test organisms for the primary screening (Table 1) and also against 61 strains of Pseudomonas aeruginosa for the secondary evaluation (Table 2).
(§2) Minimum Inhibitory Concentrations (MIC) for sodium 6-[D-(-)-α-phenyl-α-(7-hydroxy-4-oxo-4H-pyrimido[1,2-b]pyridazin-3-ylcarboxamido)acetamido]pencillanate (BB-P598), sodium 6-[D-(-)-α-(4-hydroxyphenyl)-α-(7-hydroxy-4-oxo-4H-pyrimido[1,2-b]pyridazin-3-ylcarboxamido)acetamido]-penicillanate (BB-P642) and carbenicillin were determined by the serial twofold agar dilution method using Steers' apparatus on Mueller-Hinton agar plates against 31 tests organisms (Table 8) and also against 61 strains of Pseudomonas aeruginosa (Table 9). In terms of mean % relative activity compared with carbenicillin, compounds BB-B598 and BB-P642 were 856% and 1319% as active as carbenicillin against the 61 Pseudomonas strains of Table 9.

[2] = system: P. vulgaris; assay: Serial twofold agar dilution (Mueller-Hinton agar), P. vulgaris; assay type: cell-based; conditions: Proteus vulgaris, P. vulgaris A9539, Table 8, read-out: MIC
Experimental: as §1, §2

[3] = system: P. mirabilis; assay: Serial twofold agar dilution (Mueller-Hinton agar), P. mirabilis; assay type: cell-based; conditions: Proteus mirabilis
Experimental: as §1, §2

[4] = system: E. cloacae; assay: Serial twofold agar dilution (Mueller-Hinton agar), E. cloacae; assay type: cell-based; conditions: Enterobacter cloacae
Experimental: as §1, §2

[5] = Mouse blood levels after subcutaneous administration; conditions: in vivo, sc, 20 mg/kg
Experimental: Mouse blood levels of BB-[…] and BB-[…] were determined by subcutaneous administration of 20 mg/kg of the penicillin to groups of three mice. Blood samples collected from orbital sinuses were assayed by the paper disk agar-diffusion method on Sarcina lutea PC1 1001 plates.

[6] = system: Pseudomonas sp.; assay: Serial twofold agar dilution (Mueller-Hinton agar), Pseudomonas sp.; assay type: cell-based; conditions: Pseudomonas sp. A20358, Table 8, read-out: MIC
Experimental: as §1, §2

[7] = system: Pseudomonas aeruginosa; assay: Serial twofold agar dilution (Mueller-Hinton agar), P. aeruginosa; assay type: cell-based; conditions: for MIC: Pseudomonas aeruginosa
Experimental: as §1, §2

[8] = system: S. aureus; assay: Serial twofold agar dilution (Mueller-Hinton agar), S. aureus; assay type: cell-based; conditions: Staphylococcus aureus
Experimental: as §1, §2

[9] = system: S. marcescens; assay: Serial twofold agar dilution (Mueller-Hinton agar), S. marcescens; assay type: cell-based; conditions: Serratia marcescens, S. marcescens A20019, Table 8
Experimental: as §1, §2

[10] = system: S. enteritidis; assay: Serial twofold agar dilution (Mueller-Hinton agar), S. enteritidis; assay type: cell-based; conditions: Salmonella enterica, S. enteritidis A9531, Table 8, read-out: MIC
Experimental: as §1, §2

[11] = system: E. coli; assay: Serial twofold agar dilution (Mueller-Hinton agar), E. coli; assay type: cell-based; conditions: Escherichia coli
Experimental: as §1, §2

[12] = system: Klebsiella sp.; assay: Serial twofold agar dilution (Mueller-Hinton agar), Klebsiella sp.; assay type: cell-based; conditions: Klebsiella sp. A20452, Mueller-Hinton agar, Table 8, read-out: MIC
Experimental: as §1, §2

[13] = system: K. pneumoniae; assay: Serial twofold agar dilution (Mueller-Hinton agar), K. pneumoniae; assay type: cell-based; conditions: Klebsiella pneumoniae, K. pneumoniae A9977, Table 8, read-out: MIC
Experimental: as §1, §2

SMILES: CC1(C)S[C@@H]2[C@H](NC(=O)[C@H](NC(=O)c3cnc4ccc(O)nn4c3=O)c3ccc(O)cc3)C(=O)N2[C@H]1C(=O)O [BB-P642, Sodium 6-[D-(-)-α-(4-hydroxyphenyl)-α-(7-hydroxy-4-oxo-4H-pyrimido[1,2-b]pyridazin-3-ylcarboxamido)acetamido]-penicillanate]
- MIC [1]: > 100 µg/mL
- MIC [2]: 50 µg/mL
- MIC [3]: 3.1 µg/mL
- MIC ([4]; E. cloacae A9656, Table 8): 25 µg/mL
- MIC ([4]; E. cloacae A9657, Table 8): 100 µg/mL
- MIC ([4]; E. cloacae A9659, Table 8): 25 µg/mL
- concentration at 0.25 h [5]: 18000 ng/mL
- concentration at 0.5 h [5]: 13500 ng/mL
- concentration at 1 h [5]: 5200 ng/mL
- MIC [6]: 0.4 µg/mL
- Mean % relative activity compared with carbenicillin ([7]; 61 strains of P. aeruginosa, Table 9): 1319%
- MIC ([7]; 61 strains of P. aeruginosa, Table 9, read-out: Geometric mean of MIC): 2.27 µg/mL
- MIC ([7]; A20229, Mueller-Hinton agar, Table 8, read-out: MIC): 0.4 µg/mL
- MIC ([7]; ATCC19660, Pa-14 ATCC 19660 A20325, Mueller-Hinton agar, Table 9, read-out: MIC): 1.6 µg/mL
- MIC ([7]; GN315, Pa-27 GN315 A21294, Mueller-Hinton agar, Table 9, read-out: MIC): 0.8 µg/mL
- MIC ([7]; GN4925, Pa-45 GN 4925, Mueller-Hinton agar, Table 9, read-out: MIC): 3.1 µg/mL
- MIC ([7]; P. aeruginosa A9843, Mueller-Hinton agar, Table 8, read-out: MIC): 1.6 µg/mL
- MIC ([7]; P. aeruginosa A9930, Mueller-Hinton agar, Table 8, read-out: MIC): 1.6 µg/mL
- MIC ([7]; P. aeruginosa A15150, Mueller-Hinton agar, Table 8, read-out: MIC): 0.8 µg/mL
- MIC ([7]; P. aeruginosa A20717, Mueller-Hinton agar, Table 8, read-out: MIC): 3.1 µg/mL
- MIC ([7]; Pa-2 V.A A9923, Mueller-Hinton agar, Table 9, read-out: MIC): 1.6 µg/mL
- MIC ([7]; Pa-3 1449 V.A A9930, Mueller-Hinton agar, Table 9, read-out: MIC): 1.6 µg/mL
- MIC ([7]; Pa-4 H9, D113 A21295, Mueller-Hinton agar, Table 9, read-out: MIC): 3.1 µg/mL
- MIC ([7]; Pa-5 M4865, K.C A15150, Mueller-Hinton agar, Table 9, read-out: MIC): 1.6 µg/mL
- MIC ([7]; Pa-6 No. 5 Levitan A15194, Mueller-Hinton agar, Table 9, read-out: MIC): 12.5 µg/mL
- MIC ([7]; Pa-10 A21479, Mueller-Hinton agar, Table 9, read-out: MIC): > 100 µg/mL
- MIC ([7]; Pa-11 A20616, Mueller-Hinton agar, Table 9, read-out: MIC): 1.6 µg/mL
- MIC ([7]; Pa-12 A20653, Mueller-Hinton agar, Table 9, read-out: MIC): 1.6 µg/mL
- MIC ([7]; Pa-15 A20717, Mueller-Hinton agar, Table 9, read-out: MIC): 6.3 µg/mL
- MIC ([7]; Pa-16 #130 A20718, Mueller-Hinton agar, Table 9, read-out: MIC): 0.4 µg/mL
- MIC ([7]; Pa-17 H6, D114, Mueller-Hinton agar, Table 9, read-out: MIC): 3.1 µg/mL
- MIC ([7]; Pa-18 H8, D121, Mueller-Hinton agar, Table 9, read-out: MIC): 0.4 µg/mL
- MIC ([7]; Pa-19 A20229, Mueller-Hinton agar, Table 9, read-out: MIC): 0.8 µg/mL
- MIC ([7]; Pa-20 A20325, Mueller-Hinton agar, Table 9, read-out: MIC): 1.6 µg/mL
- MIC ([7]; Pa-21 A20601, Mueller-Hinton agar, Table 9, read-out: MIC): 1.6 µg/mL
- MIC ([7]; Pa-23 A20741, Mueller-Hinton agar, Table 9, read-out: MIC): 1.6 µg/mL
- MIC ([7]; Pa-24 A20896, Mueller-Hinton agar, Table 9, read-out: MIC): > 100 µg/mL
- MIC ([7]; Pa-25 A20897, Mueller-Hinton agar, Table 9, read-out: MIC): 1.6 µg/mL
- MIC ([7]; Pa-26 PS32, Mueller-Hinton agar, Table 9, read-out: MIC): 12.5 µg/mL
- MIC ([7]; Pa-28 C.P.H. 10527/72, Mueller-Hinton agar, Table 9, read-out: MIC): 1.6 µg/mL
- MIC ([7]; Pa-29 D122, Mueller-Hinton agar, Table 9, read-out: MIC): 1.6 µg/mL
- MIC ([7]; Pa-30 A20600, Mueller-Hinton agar, Table 9, read-out: MIC): 1.6 µg/mL
- MIC ([7]; Pa-31 A20594, Mueller-Hinton agar, Table 9, read-out: MIC): 0.4 µg/mL
- MIC ([7]; Pa-32 A20595, Mueller-Hinton agar, Table 9, read-out: MIC): 1.6 µg/mL
- MIC ([7]; Pa-33 A20598, Mueller-Hinton agar, Table 9, read-out: MIC): 0.8 µg/mL
- MIC ([7]; Pa-34 A20603, Mueller-Hinton agar, Table 9, read-out: MIC): 0.8 µg/mL
- MIC ([7]; Pa-36, Mueller-Hinton agar, Table 9, read-out: MIC): 0.8 µg/mL
- MIC ([7]; Pa-37 A20130, Mueller-Hinton agar, Table 9, read-out: MIC): 1.6 µg/mL
- MIC ([7]; Pa-38 A20349, Mueller-Hinton agar, Table 9, read-out: MIC): 6.3 µg/mL
- MIC ([7]; Pa-39 A20641, Mueller-Hinton agar, Table 9, read-out: MIC): 0.8 µg/mL
- MIC ([7]; Pa-41 A21227, Mueller-Hinton agar, Table 9, read-out: MIC): 1.6 µg/mL
- MIC ([7]; Pa-42 A21229, Mueller-Hinton agar, Table 9, read-out: MIC): 12.5 µg/mL
- MIC ([7]; Pa-43 A21233, Mueller-Hinton agar, Table 9, read-out: MIC): 1.6 µg/mL
- MIC ([7]; Pa-44 A21274, Mueller-Hinton agar, Table 9, read-out: MIC): 1.6 µg/mL
- MIC ([7]; Pa-51 A9910, Mueller-Hinton agar, Table 9, read-out: MIC): 1.6 µg/mL
- MIC ([7]; Pa-52 A9926, Mueller-Hinton agar, Table 9, read-out: MIC): 3.1 µg/mL
- MIC ([7]; Pa-53 A20126, Mueller-Hinton agar, Table 9, read-out: MIC): 1.6 µg/mL
- MIC ([7]; Pa-54 A20128, Mueller-Hinton agar, Table 9, read-out: MIC): 3.1 µg/mL
- MIC ([7]; Pa-55 A20227, Mueller-Hinton agar, Table 9, read-out: MIC): 3.1 µg/mL
- MIC ([7]; Pa-56 A20228, Mueller-Hinton agar, Table 9, read-out: MIC): 1.6 µg/mL
- MIC ([7]; Pa-57 A20546, Mueller-Hinton agar, Table 9, read-out: MIC): 1.6 µg/mL
- MIC ([7]; Pa-58 A20557, Mueller-Hinton agar, Table 9, read-out: MIC): 3.1 µg/mL
- MIC ([7]; Pa-59 A20574, Mueller-Hinton agar, Table 9, read-out: MIC): 0.8 µg/mL
- MIC ([7]; Pa-60 A20602, Mueller-Hinton agar, Table 9, read-out: MIC): 1.6 µg/mL
- MIC ([7]; Pa-61 A20726, Mueller-Hinton agar, Table 9, read-out: MIC): 3.1 µg/mL
- MIC ([7]; Pa-62 A21213, Mueller-Hinton agar, Table 9, read-out: MIC): > 100 µg/mL
- MIC ([7]; Pa-64 A21336, Mueller-Hinton agar, Table 9, read-out: MIC): 0.8 µg/mL
- MIC ([7]; Pa-65 A21428, Mueller-Hinton agar, Table 9, read-out: MIC): 1.6 µg/mL
- MIC ([7]; Pa-66 A21434, Mueller-Hinton agar, Table 9, read-out: MIC): 3.1 µg/mL
- MIC ([7]; Pa-67 A21509, Mueller-Hinton agar, Table 9, read-out: MIC): 3.1 µg/mL
- MIC ([7]; Pa-68 A21510, Mueller-Hinton agar, Table 9, read-out: MIC): 3.1 µg/mL
- MIC ([7]; Pa-69 A21587, Mueller-Hinton agar, Table 9, read-out: MIC): 3.1 µg/mL
- MIC ([7]; Pa-70 K-PS102 (KR-102), Mueller-Hinton agar, Table 9, read-out: MIC): 1.6 µg/mL
- MIC ([8]; S. aureus A15097, Table 8, read-out: MIC): > 100 µg/mL
- MIC ([8]; S. aureus A20239, Table 8, read-out: MIC): 25 µg/mL
- MIC ([8]; S. aureus A20240, Table 8, read-out: MIC): 12.5 µg/mL
- MIC ([8]; S. aureus A20701, Table 8, read-out: MIC): > 100 µg/mL
- MIC ([8]; S. aureus BX-1633 A9606, Table 8, read-out: MIC): 25 µg/mL
- MIC ([8]; S. aureus Smith A9537, Table 8, read-out: MIC): 3.1 µg/mL
- MIC [9]: > 100 µg/mL
- MIC [10]: 3.1 µg/mL
- MIC ([11]; E. coli A9635, Table 8, read-out: MIC): 12.5 µg/mL
- MIC ([11]; E. coli A9844, Table 8, read-out: MIC): 3.1 µg/mL
- MIC ([11]; E. coli A20366, Table 8, read-out: MIC): > 100 µg/mL
- MIC ([11]; E. coli A20520, Table 8, read-out: MIC): 6.3 µg/mL
- MIC ([11]; E. coli A20664, Table 8, read-out: MIC): 1.6 µg/mL
- MIC ([11]; E. coli A20732, Table 8, read-out: MIC): 100 µg/mL
- MIC ([11]; E. coli A20898, Table 8, read-out: MIC): > 100 µg/mL
- MIC ([11]; E. coli Juhl A15119, Table 8, read-out: MIC): 6.3 µg/mL
- MIC ([11]; E. coli NIHJ, Table 8, read-out: MIC): 3.1 µg/mL
- MIC [12]: 12.5 µg/mL
- MIC [13]: 6.3 µg/mL
